Converted amounts (≈) assume the structure as drawn.
Key:
[1] = test system: Mycobacterium immunogenum MWF isolates; experiment: Anti-mycobacterial activity in MWF, plating on Mycoagar; assay type: cell-based; conditions: MCC added to a MWF 24 hours after the isothiazolones had been added
Method: The MWFs selected were fluids which had evidence of CMIT incompatibility. The MCC was added to the MWFs 24 hours before the CMIT was added; 24 hours after the CMIT was added; or in a mixture with the CMIT. This was done for each concentration of CMIT (7.5 and 15 ppm) and MCC (250 and 500 ppm). Controls consisted of no biocide and CMIT at 7.5 and 15 ppm. Stability of the isothiazolones was evaluated at time 0 and then after 24 and 48 hours by standard methods for detecting isothiazones. Plating for mycobacteria kill was performed with aliquots from time 0 and 48 hours.
Plating was performed on 100 mm petri dishes containing 20 mL of an appropriate agar. Two different formulations, both based on Plate Count Agar (standard methods for waste and waste water). The medium for recovery of Mycobacterium immunogenum is nutritionally supplemented with TWEEN 80 and glycerin and has three antibiotics (cyclohexamide, chloramphenicol, and gentimicin) to inhibit fungi and unwanted bacteria. This medium with agar is referred to herein as “Mycoagar.”
The MWFs selected were fluids which had evidence of CMIT incompatibility. The MCC was added to the MWFs 24 hours before the CMIT was added at 15 ppm. Stability was evaluated at time 0 and then after 24 and 48 hours by chemical analysis. Plating for mycobacteria kill was performed with aliquots from time O and after 48 hours.

[2] = test system: Mycobacterium immunogenum isolate; conditions: Mycobacterium immunogenum isolate from MWF (ATCC 700506); cited from earlier work

Row | SMILES | suppressing growth of the Mycobacterium immunogenum genotype [1] | MIC [2]
1 | O=C([O-])CC(O)(CC(=O)[O-])C(=O)O.[Cu+2] [MCC, disodium monocopper (II) citrate] | ineffective | 
2 | NCC[C@H](O)C(=O)N[C@@H]1C[C@H](N)[C@@H](O[C@H]2O[C@H](CN)[C@@H](O)[C@H](O)[C@H]2O)[C@H](O)[C@H]1O[C@H]1O[C@H](CO)[C@@H](O)[C@H](N)[C@H]1O [amikacin] |  | 128 µg/mL (≈ 219 µM)
3 | CO[C@@]1(NC(=O)CSCC#N)C(=O)N2C(C(=O)O)=C(CSc3nnnn3C)CS[C@@H]21 [cefinetazole] |  | 64 µg/mL (≈ 136 µM)
4 | CO[C@@]1(NC(=O)Cc2cccs2)C(=O)N2C(C(=O)O)=C(COC(N)=O)CS[C@@H]21 [cefoxitin] |  | 64 µg/mL (≈ 150 µM)
5 | C[C@H]1c2cccc(O)c2C(=O)C2=C(O)[C@]3(O)C(=O)C(C(N)=O)=C(O)[C@@H](N(C)C)[C@@H]3[C@@H](O)[C@@H]21 [doxyxycline] |  | > 128 µg/mL
6 | Cc1cc(NS(=O)(=O)c2ccc(N)cc2)no1 [sulfamethoxazole] |  | > 64 µg/mL
